Reference: patent US11052127B2, “HSP for use in treatment for imiquimod related side effects” (Alfa Biogene International B.V., priority 2012, dated 2021)
Read-outs that look alike come from different tables or passages of the source.

How the values were obtained:
[1] = test system: BALBc mice; test: Visual appearance (scaling) of the backs of the mice, FIG. 1; type: in vivo; settings: after 6 days of treatment
Description: (§2) Group 1: mice were treated for 6 days on shaved back and right ear with one daily application of imiquimod 5% cream to the skin (3.125 mg daily dose)
(§3) Group 2: mice were treated for 6 days as group 1. In addition the part of the skin to which imiquimod was applied was treated twice daily with the cream comprising 50 μg/ml HSP (20 μg HSP per dose). Each day, the cream comprising HSP70 was applied to the skin in a 1 mm layer, 4 hours before application of the imiquimod, and again 4 hours after treatment with imiquimod.
From left to right: Group 2 (20 μg HSP), Group 3 (100 μg HSP), Group 4 (carrier cream only) and Group 1 (imiquimod only)

[2] = test system: BALBc mice; test: Ear pinnae thickness in mice treated with imiquimod cream with or without HSP70 cream; type: in vivo; settings: Group 1, imiquimod 5% cream only, 3.125 mg daily dose
Description: (§1) The effect of HSP was tested on mice (BALBc mice, male 10-12 weeks old) The mice were divided in 5 groups of eight mice each: […] Group 2: mice were treated for 6 days as group 1. […] Group 3: mice were treated for 6 days as group 2, except for the cream comprising 250 μg/ml HSP (100 μg HSP per dose) Group 4: mice were treated as group 2 except for the carrier cream comprising no Hsp70. (mice were treated for six days, twice a day, once four hours before treatment with imiquimod, once four hours after treatment with imiquimod. Group 5: control group, no cream application. Day 1: initial evaluation for visible signs of psoriasis. […] Animal backs were shaved and photographs were taken. Thickness of both ear pinnae were measured. Cream application was performed creams. All animals were assessed and examined once daily for behavioural changes and adverse effects. Ear pinnae measurements are performed daily. Skin changes Study groups on ordinal and continuous outcomes were compared using the Kruskal-Wallis test with a […] adjustment for pairwise group comparisons for an overall statistical significance criteria of 0.05 for each outcome.

[3] = test system: BALBc mice; test: Histology of back skin samples: average epidermal thickness of the treated skin; type: in vivo; settings: day 7, Group 1, imiquimod only
Description: as §2, §3
Day 7: The animals were euthanized and skin tissue and blood was processed. Inflammatory markers were measured with Q-PCR (skin samples). Skin samples were histologically examined. […]

[4] = test system: BALBc mice; test: Cumulative PASI score (erythema, scales, thickness) of imiquimod-treated mice; type: in vivo; settings: day 7; maximum of 12 points; Group 1, imiquimod only
Description: as §1, with “taken.” for “taken. Thickness of both ear pinnae were measured. Cream application was performed creams. All animals”, “by the PASI score. On day 7, photographs of all animals (backs) were taken to document progression of the disease.” for “and examined once daily for behavioural changes and adverse effects. Ear pinnae measurements are performed daily. Skin changes”

[5] = test system: patients; settings: cited from earlier work

ear thickness ([2]; Day 1): 0.21 mm
ear thickness ([2]; Day 5): 0.28 mm
ear thickness ([2]; Day 6): 0.37 mm
ear thickness ([2]; Day 7): 0.40 mm
average epidermal thickness of the treated skin [3]: 58 μm
cumulative PASI score [4]: 6.5
Compound: CC(C)Cn1cnc2c(N)nc3ccccc3c21 [imiquimod]
scaling of the backs of the mice [1]: severely scaled
remote site skin reaction: edema ([5]; in females): 1%
remote site skin reaction: erythema ([5]; in females): 3%
remote site skin reaction: ulceration ([5]; in females): 2%
remote site skin reaction: edema ([5]; in males): 1%
remote site skin reaction: erosion ([5]; in males): 2%
remote site skin reaction: erythema ([5]; in males): 1%
remote site skin reaction: induration ([5]; in males): 1%
remote site skin reaction: scaling/excoriation/flaking ([5]; in males): 1%
remote site reactions: bleeding, burning, itching, pain, dryness, scabbing, crusting, redness, hardening of the skin, tenderness, tinea cruris ([5]; in vivo): more than 1 % of patients
